Source: US10758534B2 (Vertex Pharmaceuticals Incorporated, priority 2014, dated 2020)

Molecular target: T1, F508del (Homo sapiens, UniProt P13569, DEL508-508)
T1 construct: expressed in transfected cells
Assay: Protocol 1: membrane potential optical assay (FLIPR III, voltage sensing dye), identification of potentiator compounds
Assay type: cell-based
Conditions: Table 3, compounds of Table 1
How it was run: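 Gating potentiation is read as a membrane-potential fluorescence change (FLIPR III, voltage-sensing dye) after one forskolin addition under a Cl− gradient, with gluconate replacing chloride, pH 7.4. Cells are F508del-expressing NIH3T3 mouse fibroblasts held 24 h at 27 °C and exposed to compound before dye loading.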

T1 sequence (P13569 with tags, fused parts or gaps DEL508-508): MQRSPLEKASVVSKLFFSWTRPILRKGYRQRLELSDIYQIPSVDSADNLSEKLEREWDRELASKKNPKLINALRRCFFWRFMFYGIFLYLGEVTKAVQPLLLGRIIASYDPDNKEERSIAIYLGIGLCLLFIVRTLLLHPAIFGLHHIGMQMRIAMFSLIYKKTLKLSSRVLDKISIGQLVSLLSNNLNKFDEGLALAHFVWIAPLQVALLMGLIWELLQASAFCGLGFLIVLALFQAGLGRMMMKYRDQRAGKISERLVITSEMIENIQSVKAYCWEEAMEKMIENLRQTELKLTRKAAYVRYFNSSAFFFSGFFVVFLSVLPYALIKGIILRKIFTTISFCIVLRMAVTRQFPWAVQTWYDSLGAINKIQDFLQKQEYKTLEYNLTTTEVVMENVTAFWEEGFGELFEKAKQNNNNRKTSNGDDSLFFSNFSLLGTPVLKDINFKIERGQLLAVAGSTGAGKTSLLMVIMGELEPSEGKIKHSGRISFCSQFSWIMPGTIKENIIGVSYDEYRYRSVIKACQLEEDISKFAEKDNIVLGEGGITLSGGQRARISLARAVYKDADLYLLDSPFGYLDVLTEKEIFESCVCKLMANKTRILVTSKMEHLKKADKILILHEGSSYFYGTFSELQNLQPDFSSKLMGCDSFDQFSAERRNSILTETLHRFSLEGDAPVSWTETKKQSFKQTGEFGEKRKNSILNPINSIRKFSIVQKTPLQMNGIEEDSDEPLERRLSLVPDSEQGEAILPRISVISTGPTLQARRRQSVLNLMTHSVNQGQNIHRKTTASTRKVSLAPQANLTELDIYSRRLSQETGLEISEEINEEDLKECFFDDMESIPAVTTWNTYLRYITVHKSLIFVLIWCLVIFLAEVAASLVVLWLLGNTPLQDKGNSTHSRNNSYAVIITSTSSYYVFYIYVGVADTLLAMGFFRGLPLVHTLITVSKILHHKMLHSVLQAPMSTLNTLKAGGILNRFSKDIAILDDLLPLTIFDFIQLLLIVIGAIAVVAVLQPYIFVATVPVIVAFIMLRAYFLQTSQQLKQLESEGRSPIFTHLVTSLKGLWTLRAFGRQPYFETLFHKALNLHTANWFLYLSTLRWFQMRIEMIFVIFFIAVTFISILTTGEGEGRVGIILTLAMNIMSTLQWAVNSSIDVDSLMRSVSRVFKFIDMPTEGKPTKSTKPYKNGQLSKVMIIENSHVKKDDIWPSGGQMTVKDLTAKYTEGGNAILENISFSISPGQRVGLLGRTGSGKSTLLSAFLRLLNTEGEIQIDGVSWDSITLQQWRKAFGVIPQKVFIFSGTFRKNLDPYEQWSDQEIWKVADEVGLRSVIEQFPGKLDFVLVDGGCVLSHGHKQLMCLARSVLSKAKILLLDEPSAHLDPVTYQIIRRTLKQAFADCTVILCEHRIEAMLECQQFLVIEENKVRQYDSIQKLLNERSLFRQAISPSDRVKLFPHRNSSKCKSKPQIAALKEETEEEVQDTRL

`Cc1cc(C)c(Oc2nc(-c3ccnn3C(C)C)ccc2C(=O)NS(=O)(=O)c2cccc(N)n2)c(C)c1` [Compound 1317, N-[(6-amino-2-pyridyl)sulfonyl]-6-(2-isopropylpyrazol-3-yl)-2-(2,4,6-trimethylphenoxy)pyridine-3-carboxamide] was tested, and the EC30 was “+++ (“+++” means <3 uM)”.

With `Cc1ccccc1Oc1nc(C(C)(C)C)ccc1C(=O)NS(=O)(=O)c1cccc(N)n1` [Compound 1318, N-[(6-amino-2-pyridyl)sulfonyl]-6-tert-butyl-2-(2-methylphenoxy)pyridine-3-carboxamide] the EC30 was “+++ (“+++” means <3 uM)”.

For `CC(C)COc1cc(F)cc(-c2ccc(C(=O)NS(=O)(=O)c3cccc(N)n3)c(N3CCC(c4ccccc4)C3C)n2)c1` (centres unmarked) [Compound 1319, N-[(6-amino-2-pyridyl)sulfonyl]-6-(3-fluoro-5-isobutoxy-phenyl)-2-(2-methyl-3-phenyl-pyrrolidin-1-yl)pyridine-3-carboxamide], the EC30 was “+++ (“+++” means <3 uM)”.

In the case of `COc1ccc(C)cc1-c1ccc(C(=O)NS(=O)(=O)c2cccc(N)n2)c(Oc2c(C)cc(C)cc2C)n1` [Compound 1320, N-[(6-amino-2-pyridyl)sulfonyl]-6-(2-methoxy-5-methyl-phenyl)-2-(2,4,6-trimethylphenoxy)pyridine-3-carboxamide], the EC30 is reported as “+++ (“+++” means <3 uM)”.

For `Cc1cc(C)c(Oc2ncc(-c3ccccc3)cc2C(=O)NS(=O)(=O)c2cccc(N)c2)c(C)c1` [Compound 1321, N-(3-aminophenyl)sulfonyl-5-phenyl-2-(2,4,6-trimethylphenoxy)pyridine-3-carboxamide], the EC30 was “++ (“++” means between 3 uM and 10 uM)”.

`CC(C)Oc1ccc(-c2ccc(C(=O)NS(=O)(=O)c3cccc(N)n3)c(N3CC[C@@H](C)C3)n2)cn1` [Compound 1322, N-[(6-amino-2-pyridyl)sulfonyl]-6-(6-isopropoxy-3-pyridyl)-2-[(3R)-3-methylpyrrolidin-1-yl]pyridine-3-carboxamide] was tested, and the EC30 was “++ (“++” means between 3 uM and 10 uM)”.

`CC(C)COc1cc(F)cc(-c2ccc(C(=O)NS(=O)(=O)c3cccc4[nH]ccc34)c(N3CCC(C)(C)CC3)n2)c1` [Compound 1323, 2-(4,4-dimethyl-1-piperidyl)-6-(3-fluoro-5-isobutoxy-phenyl)-N-(1H-indol-4-ylsulfonyl)pyridine-3-carboxamide] was tested, and the EC30 was “+ (“+” means greater than 10 uM)”.

`CC(C)COc1cc(F)cc(-c2ccc(C(=O)NS(=O)(=O)c3cccc(N)n3)c(OC3CCOCC3)n2)c1` [Compound 1324, N-[(6-amino-2-pyridyl)sulfonyl]-6-(3-fluoro-5-isobutoxy-phenyl)-2-tetrahydropyran-4-yloxy-pyridine-3-carboxamide] was tested, and the EC30 was “+++ (“+++” means <3 uM)”.

For `Cc1cc(C)c(Oc2nc(-c3cc(F)cc(F)c3)ccc2C(=O)NS(=O)(=O)c2cccc(N)n2)c(C)c1` [Compound 1325, N-[(6-amino-2-pyridyl)sulfonyl]-6-(3,5-difluorophenyl)-2-(2,4,6-trimethylphenoxy)pyridine-3-carboxamide], the EC30 was “+++ (“+++” means <3 uM)”.

With `COc1cccc(OC)c1-c1ccc(C(=O)NS(=O)(=O)c2cccc(N)n2)c(Oc2c(C)cc(C)cc2C)n1` [Compound 1326, N-[(6-amino-2-pyridyl)sulfonyl]-6-(2,6-dimethoxyphenyl)-2-(2,4,6-trimethylphenoxy)pyridine-3-carboxamide] the EC30 was “++ (“++” means between 3 uM and 10 uM)”.

In the case of `CC(C)Oc1ccc(-c2ccc(C(=O)NS(=O)(=O)c3cccc(N)n3)c(N3CCC(C)(C)C3C)n2)cn1` (centres unmarked) [Compound 1327, N-[(6-amino-2-pyridyl)sulfonyl]-6-(6-isopropoxy-3-pyridyl)-2-(2,3,3-trimethylpyrrolidin-1-yl)pyridine-3-carboxamide], the EC30 is reported as “+++ (“+++” means <3 uM)”.

With `CC(C)(C)COc1cccc(-c2ccc(C(=O)NS(=O)(=O)c3cccc(N)n3)c(N3CCCC3(C)C)n2)n1` [Compound 1328, N-[(6-amino-2-pyridyl)sulfonyl]-6-[6-(2,2-dimethylpropoxy)-2-pyridyl]-2-(2,2-dimethylpyrrolidin-1-yl)pyridine-3-carboxamide] the EC30 was “+++ (“+++” means <3 uM)”.

In the case of `Cc1cc(C)c(Oc2nc(C3CCC(F)(F)CC3)ccc2C(=O)NS(=O)(=O)c2ccc[nH]c2=O)c(C)c1` [Compound 1329, 6-(4,4-difluorocyclohexyl)-N-[(2-oxo-1H-pyridin-3-yl)sulfonyl]-2-(2,4,6-trimethylphenoxy)pyridine-3-carboxamide], the EC30 is reported as “++ (“++” means between 3 uM and 10 uM)”.

For `Cc1cc(C)c(Oc2nc(C3=CCCC3)ccc2C(=O)NS(=O)(=O)c2cccc(N)n2)c(C)c1` [Compound 1330, N-[(6-amino-2-pyridyl)sulfonyl]-6-(cyclopenten-1-yl)-2-(2,4,6-trimethylphenoxy)pyridine-3-carboxamide], the EC30 was “+++ (“+++” means <3 uM)”.

`Cc1ccc(-c2nc(C(C)(C)C)ccc2C(=O)NS(=O)(=O)c2cccc(N)c2)c(F)c1` [Compound 1331, N-(3-aminophenyl)sulfonyl-6-tert-butyl-2-(2-fluoro-4-methyl-phenyl)pyridine-3-carboxamide] was tested, and the EC30 was “+ (“+” means greater than 10 uM)”.

With `COc1ncc(-c2ccc(C(=O)NS(=O)(=O)c3cccc(N)n3)c(Oc3c(C)cc(C)cc3C)n2)cc1Cl` [Compound 1332, N-[(6-amino-2-pyridyl)sulfonyl]-6-(5-chloro-6-methoxy-3-pyridyl)-2-(2,4,6-trimethylphenoxy)pyridine-3-carboxamide] the EC30 was “+++ (“+++” means <3 uM)”.

`CC(C)COc1cc(F)cc(-c2ccc(C(=O)NS(=O)(=O)c3cccc(N)n3)c(N3CCCC34CC4)n2)c1` [Compound 1333, N-[(6-amino-2-pyridyl)sulfonyl]-2-(7-azaspiro[2.4]heptan-7-yl)-6-(3-fluoro-5-isobutoxy-phenyl)pyridine-3-carboxamide] was tested, and the EC30 was “+++ (“+++” means <3 uM)”.

With `CC1CN(c2nc(-c3ccccc3)ccc2C(=O)NS(=O)(=O)c2cccc(N)n2)C(C)(C)C1` (centres unmarked) [Compound 1334, N-[(6-amino-2-pyridyl)sulfonyl]-6-phenyl-2-(2,2,4-trimethylpyrrolidin-1-yl)pyridine-3-carboxamide] the EC30 was “+++ (“+++” means <3 uM)”.

With `CC(C)COc1ccc(-c2ccc(C(=O)NS(=O)(=O)c3ccn[nH]3)c(N3[C@H](C)CC[C@@H]3C)n2)cc1` [Compound 1335, 2-[(2S,5R)-2,5-dimethylpyrrolidin-1-yl]-6-(4-isobutoxyphenyl)-N-(1H-pyrazol-5-ylsulfonyl)pyridine-3-carboxamide] the EC30 was “+++ (“+++” means <3 uM)”.

In the case of `Cc1cc(C)c(Oc2nc(-c3cnn(CCC(C)C)c3)ccc2C(=O)NS(=O)(=O)c2cccc(N)n2)c(C)c1` [Compound 1336, N-[(6-amino-2-pyridyl)sulfonyl]-6-(1-isopentylpyrazol-4-yl)-2-(2,4,6-trimethylphenoxy)pyridine-3-carboxamide], the EC30 is reported as “+++ (“+++” means <3 uM)”.

In the case of `CCOc1ccc(-c2ccc(C(=O)NS(=O)(=O)c3cccc(N)n3)c(Oc3c(C)cc(C)cc3C)n2)cc1` [Compound 1337, N-[(6-amino-2-pyridyl)sulfonyl]-6-(4-ethoxyphenyl)-2-(2,4,6-trimethylphenoxy)pyridine-3-carboxamide], the EC30 is reported as “+++ (“+++” means <3 uM)”.

With `Cc1cc(C)c(CN2Cc3c(O)cccc3C2(C)C(=O)NS(=O)(=O)c2cccc(N)n2)c(C)c1` (centres unmarked) [Compound 1338, N-[(6-amino-2-pyridyl)sulfonyl]-4-hydroxy-1-methyl-2-[(2,4,6-trimethylphenyl)methyl]isoindoline-1-carboxamide] the EC30 was “++ (“++” means between 3 uM and 10 uM)”.

`CC(C)Oc1ccc(-c2ccc(C(=O)NS(=O)(=O)c3cccc(N)n3)c(N3CCCC(c4cccc(Cl)c4)C3)n2)cn1` (centres unmarked) [Compound 1339, N-[(6-amino-2-pyridyl)sulfonyl]-2-[3-(3-chlorophenyl)-1-piperidyl]-6-(6-isopropoxy-3-pyridyl)pyridine-3-carboxamide] was tested, and the EC30 was “+++ (“+++” means <3 uM)”.

With `CC(C)COc1cc(F)cc(-c2ccc(C(=O)NS(=O)(=O)c3cccc(CO)n3)c(N3CCC(C)CC3)n2)c1` [Compound 1340, 6-(3-fluoro-5-isobutoxy-phenyl)-N-[[6-(hydroxymethyl)-2-pyridyl]sulfonyl]-2-(4-methyl-1-piperidyl)pyridine-3-carboxamide] the EC30 was “+++ (“+++” means <3 uM)”.

With `CCC1(C)CCCN(c2nc(-c3ccc(OC(C)C)nc3)ccc2C(=O)NS(=O)(=O)c2cccc(N)n2)C1` (centres unmarked) [Compound 1341, N-[(6-amino-2-pyridyl)sulfonyl]-2-(3-ethyl-3-methyl-1-piperidyl)-6-(6-isopropoxy-3-pyridyl)pyridine-3-carboxamide] the EC30 was “+++ (“+++” means <3 uM)”.

For `COc1ncccc1S(=O)(=O)NC(=O)C1CCc2ccccc2CN1Cc1c(C)cc(C)cc1C` (centres unmarked) [Compound 1342, N-[(2-methoxy-3-pyridyl)sulfonyl]-2-[(2,4,6-trimethylphenyl)methyl]-1,3,4,5-tetrahydro-2-benzazepine-3-carboxamide], the EC30 was “+++ (“+++” means <3 uM)”.

With `CC(C)c1ccc(-c2ccc(C(=O)NS(=O)(=O)c3cccc(N)n3)c(N3[C@H](C)CC[C@@H]3C)n2)cc1` [Compound 1343, N-[(6-amino-2-pyridyl)sulfonyl]-2-[(2S,5R)-2,5-dimethylpyrrolidin-1-yl]-6-(4-isopropylphenyl)pyridine-3-carboxamide] the EC30 was “+++ (“+++” means <3 uM)”.

`Cc1cc(C)c(Oc2nc(-c3ccc(O)cc3)ccc2C(=O)NS(=O)(=O)c2cccc(N)n2)c(C)c1` [Compound 1344, N-[(6-amino-2-pyridyl)sulfo]-6-(4-hydroxyphenyl)-2-(2,4,6-trimethylphenoxy)pyridine-3-carboxamide] was tested, and the EC30 was “++ (“++” means between 3 uM and 10 uM)”.

`CCN(CC)c1cccc(-c2ccc(C(=O)NS(=O)(=O)c3cccc(N)n3)c(N3CC(C)CC3(C)C)n2)n1` (centres unmarked) [Compound 1345, N-[(6-amino-2-pyridyl)sulfonyl]-6-[6-(diethylamino)-2-pyridyl]-2-(2,2,4-trimethylpyrrolidin-1-yl)pyridine-3-carboxamide] was tested, and the EC30 was “+++ (“+++” means <3 uM)”.
